The results in this text go back to patent publication US12241099B2, “Peptide therapeutics for treating Alzheimer's disease and related conditions” (The Board of Regents of the University of Oklahoma, priority 2018, dated 2025).

As usually defined, the IC50 is the concentration that gives 50% inhibition.

Residues, ends and D or L forms follow the SMILES beside them.

Assay [1] has as its target T1, Aβ1-42 (Homo sapiens, UniProt P05067). The assay is described as follows: Enzyme activity assay (cleavage of Aβ1-42, MALDI-TOF). The format is biochemical. On the set-up: used to monitor the formation of Aβ1-42 peptide fibrils; purchased Anaspec. Here is the method:
Aβ1-42 treated with hexafluoroisopropanol was purchased from Bachem and reconstituted in anhydrous DMSO at 5 mM. Reactions were set up with increasing concentrations of enzyme (CAP37, NE or CG) and 10 μM Aβ1-42 substrate in PBS, and incubated at 37° C. for 1 hour. Reactions were stopped by the addition of acetonitrile and trifluoroacetic acid (TFA) to final concentrations of 7.5% and 0.5% respectively. Internal standard (Aβ40-1 from Bachem) dissolved in 10% acetic acid was added to a final concentration of 8 μg/ml. A 10 μl aliquot of this mixture was desalted on a C18 OMIX tip from Agilent Technologies. First, the C18 resin was rinsed with 2×10 μl of 50% methanol, then 2×10 μl of equilibration buffer (5% acetonitrile 0.5% TFA), then the sample was applied to the resin by pipetting 10 times through the resin, which was then washed twice with equilibration buffer and eluted with 75% acetonitrile 0.1% TFA.
Desalted samples were analyzed by Matrix Assisted Laser Desorption/Ionization-Time of Flight mass spectrometry (MARLDI-TOF) using a Bruker Ultraflex II instrument and Flex Control Software. […] Chromatographs were analyzed with Flex Analysis software. […] The ratio of the Aβ1-42 peak intensity divided by the internal standard peak intensity was calculated for each spot, and triplicate spots were averaged to determine the amount of uncleaved Aβ in each enzymatic reaction.

The target in assay [2] is T1, Aβ1-42. Nature of the assay: Amyloid Beta (1-42) Thioflavin T fibrillation (aggregation) assay. On the set-up: used to monitor the formation of Aβ1-42 peptide fibrils; purchased Anaspec. The format is biochemical. Here is the method:
The Amyloid Beta (1-42) Thioflavin T Aggregation Kit was purchased from Anaspec and used to monitor the formation of Aβ1-42 peptide fibrils, according to the manufacturer's instructions, with some modifications. Thioflavin T dye was diluted to 250 μM in fibrillation buffer A and kept in the dark until use. […] Neutrophil proteins were tested in the absence and presence of protease inhibitors. […] Chymostatin was dissolved in DMSO and used at 125 μM final concentration in reactions with CG. Reactions were pipetted up and down twice in the wells with a multichannel pipette to ensure mixing, and fluorescence (ΔEX=440 nm, ΔEm=485 nm) was read every 5 minutes for 3 hours on a BioTek Synergy 2 plate reader with Gen 5 software, with a sensitivity set at 65.

Assay [3] relates to mouse neuroblastoma cell line Neuro-2a. Nature of the assay: Neurotoxicity assay of Aβ1-42 fibrils/oligomers (trypan blue cell death). Type of assay: cell-based. As to conditions: oligomers formed 15 min in presence of increasing concentrations; 18 μM Aβ1-42 on cells, 24 hours. Here is the method:
A mouse neuroblastoma cell line Neuro-2a from ATCC was used for these experiments. Cells were grown and seeded in 96 well plates at 20,000 cells per well in complete medium (MEM α, nucleosides, no phenol red from Gibco, with 10% heat inactivated fetal bovine serum from Gibco, and penicillin/streptomycin from Lonza). At 24 hours after seeding, cells were washed with warmed MEM α, and then incubated in 90 μl MEM α+N2 Supplements+20 μl test sample (Aβ1-42 prepared as described below). Cells were incubated another 24 hours at 37° C., and then dislodged by pipetting up and down vigorously. 10 μl of cells were added to 10 μl trypan blue dye (0.4% solution) from BioRad, mixed and counted in a BioRad TC20 cell counter. The percent of living and dead cells was recorded for each well. In the case of the water and Triton X100 controls, 20 μl MEM α+N2 Supplements was added instead of the test sample and, just before counting the cells, 20 μl of medium was removed and replaced with 20 μl water or Triton X100 at a final concentration of 0.1%.
Monomeric Aβ1-42 (hexafluoroisopropanol treated Aβ1-42) from Bachem was reconstituted at 5 mM in anhydrous DMSO. Untreated Aβ1-42 from CS Bio was also used in these experiments. It was first treated with 1 mM in hexafluoroisopropanol from Sigma Aldrich, incubated 30 min at room temperature, and left open to dry in the fume hood overnight. It was then vacuum desiccated for 1 hour at room temperature. Dry films of Aβ1-42 were stored at −20° C. until use to keep it under a monomeric form. Aβ1-42 from CS Bio was also reconstituted in anhydrous DMSO at 5 mM before use.
To prepare the fibril and oligomer test samples, monomeric Aβ1-42 was placed under conditions favoring either formation of fibrils or oligomers. To form fibrils, 100 μM Aβ1-42 was added to Anaspec fibrillation buffer A±neutrophil protein, and incubated at 37° C. 24 hours before addition to the cells at a final concentration of 18 μM. Neutrophil proteins were used at Aβ/Protein ratios that led to 50% inhibition of fibrillation (IC50), previously determined for each protein in the fibrillation assay. To form oligomers, MEM α+N2 Supplements was used instead of the fibrillation buffer A±increasing concentrations of neutrophil protein or CAP37-derived peptide. Each mixture was then added to a tube containing freshly prepared Aβ1-42 in DMSO at a final concentration of 100 μM, and incubated 15 min at room temperature. These test samples were then tested on the cells at a final concentration of 18 μM.
Oligomers were formed by incubating 100 μM Aβ1-42 in MEMα+N2 Supplements at 4° C. for 3 days. […] Finally, these oligomers were added to neurons at a final concentration of 18 μM, and percent cell death was measured at 24 h.

For assay [4], the target named is T1, Aβ1-42. The assay is described as follows: ELISA binding of Aβ1-42 to plate-coated neutrophil proteins and derived peptides. The following applies: 150 nM Aβ1-42; plate coated with protein/peptide at 5 μg/ml; no protease inhibitor. How it is done: CAP37, NE, and CG were purified from human neutrophils and purchased from Athens Research and Technology. BSA was from Sigma Aldrich. CAP37-derived peptides were synthesized by CS Bio Co with a purity >95%. Maxisorp plates from Nunc were coated with 100 μl neutrophil protein, peptide, or BSA diluted at 5 μg/ml in PBS with or without 1 mM PMSF purchased from Sigma Aldrich (for experiments with CAP37, NE, and BSA) or ±125 μM chymostatin purchased from Santa Cruz (for experiments with CG and BSA). Plate coating was done at room temperature for 2 hours with shaking and then at 4° C. overnight. Plates were washed three times in PBST (PBS+0.05% tween), then blocked with 3% BSA in PBST for 1 hour at room temperature with shaking. Plates were washed 3× in PBST, and 150 nM Aβ1-42 (purchased from Bachem and reconstituted in 1 mM NaOH) was added in 0.1% BSA in PBST and incubated 70 minutes at 37° C. Plates were then washed 4 times with PBST and monoclonal mouse anti-amyloid precursor protein/amyloid beta antibody, purchased from Cell Signaling Technology was added at a 1:500 dilution in 1% BSA in PBST and incubated for 1 hour at room temperature with shaking. Plates were washed 4× in PBST and donkey anti mouse HRP-conjugated secondary antibody from Jackson ImmunoResearch Laboratories was added at 1:10,000 in PBST and incubated 1 hour at room temperature with shaking, then washed 4 times in PBST. […] Sulfuric acid (5N) was added to each well to stop the reaction, and the absorbance at 492 nm was read on a Biotek Synergy II plate reader.

T1 sequence (P05067 672-713 limits assumed): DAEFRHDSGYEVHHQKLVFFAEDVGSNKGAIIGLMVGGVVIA

On to `CC(C)C[C@H](NC(=O)[C@H](CCCNC(=N)N)NC(=O)CNC(=O)CNC(=O)[C@H](CO)NC(=O)[C@H](CCCNC(=N)N)NC(=O)[C@H](Cc1c[nH]c2ccccc12)NC(=O)[C@H](CO)NC(=O)CNC(=O)[C@H](Cc1c[nH]c2ccccc12)NC(=O)CNC(=O)[C@H](C)NC(=O)[C@@H](NC(=O)[C@H](CCC(N)=O)NC(=O)[C@H](CS)NC(=O)[C@H](CCCNC(=N)N)NC(=O)[C@@H](NC(=O)CN)[C@@H](C)O)C(C)C)C(=O)N[C@@H](CO)C(=O)N[C@@H](CCCNC(=N)N)C(=O)N[C@@H](Cc1ccccc1)C(=O)N1CCC[C@H]1C(=O)N[C@@H](CCCNC(=N)N)C(=O)N[C@@H](Cc1ccccc1)C(=O)N[C@H](C(=O)N[C@@H](CC(N)=O)C(=O)N[C@H](C(=O)O)C(C)C)C(C)C` [120-146 WR] (H-GTRCQVAGWGSWRSGGRLSRFPRFVNV-OH; N-terminus and C-terminus assumed), for which, on Aβ1-42 [1], the “enzymatic activity on Aβ1-42” value is “do not have enzymatic activities”. For the same molecule, on Aβ1-42 [2] (at time of complete fibrillation of Aβ1-42 control, no protease inhibitor), the IC50 was ~1000 nM. Besides, the “inhibition of Aβ1-42 fibrillation (in words)” value on Aβ1-42 [2] (increasing concentrations of peptide, Rfu) was “able to inhibit fibrillation”. In addition, the “molar ratio inhibitor/Aβ1-42 corresponding to IC50 of fibrillation” value on Aβ1-42 [2] (ratio at IC50) was 1/10. Also, the “effect on Aβ1-42 oligomer toxicity” value in assay [3] is on record as “significantly inhibited”. Also, the “binding of Aβ1-42” value on Aβ1-42 [4] was “binds”.
